Experimental data published in patent US12544428B2, “Controlled-release CNP agonists with reduced side-effects” (ASCENDIS PHARMA GROWTH DISORDERS A/S, priority 2016, dated 2026).
Like-named read-outs stand apart in the source and are kept apart here.

How the values were obtained:
[1] = biological target: recombinant human NEP (Homo sapiens, UniProt P08473); conditions: pH 7.4
Method: In order to determine the in vitro stability of various CNP variants including different peptide chain lengths and PEGylations using different PEGylation sites and PEG molecules in the presence of Neutral Endopeptidase (NEP), a NEP digest assay was established. This assay monitored the decrease of the non-digested CNP variant (normalized with the internal standard PFP) over time in reference to the t0-time point.
In detail, recombinant human NEP (2.5 μg/mL final concentration) and the standard pentafluorophenol (PFP; 40 μg/mL final concentration) were added to the CNP variant (100 μg CNP equivalents/mL) in digest buffer (50 mM Tris-HCl, pH 7.4, 10 mM NaCl). The solution was incubated at 37° C. and 500 rpm for up to 4 days. Samples were taken at different time intervals. The reaction was stopped by a combined reduction and heat denaturation adding TCEP (tris(2-carboxyethyl)phosphine; 25 mM final concentration) and incubating the mixture at 95° C., 500 rpm for 5 minutes. The resulting reaction products were assigned using HPLC-MS. The half life of each CNP variant was calculated via the ratio change in the HPLC-UV peak areas of CNP and PFP over time.

[2] = Evaluation of cardiovascular effects in the conscious telemetered mouse (subcutaneous administration); format: in vivo, Crl:CD1(ICR) mice; conditions: 800 μg CNP-38 (eq)/kg sc; for MAP: mean ± SD, n = 4
Description: The purpose of this study was to evaluate the haemodynamic side effects of 11i at dose level equivalent to a CNP-38 dose level eliciting haemodynamic side effects (decrease in blood pressure) in the telemetered mouse.
Male Crl:CD1(ICR) mice (age range 8-13 weeks and body weight range 27.3-35.6 g at start of dosing) were surgically implanted with a TA11PA-C10 telemetry transmitter (Data Sciences International (DSI)) in the carotid artery. The body of the transmitter was placed subcutaneously in the lateral flank of the mouse. The mice were dosed subcutaneously in a latin square crossover design with at least 72 hours between dosing occasions. Mice were dosed with 1) vehicle (10 mM succinate, 46.0 g/L mannitol, pH 4.00), 2) CNP-38 (800 μg CNP-38/kg, 10 mM succinate, 46.0 g/L mannitol, pH 4.00) or 3) 11i (800 μg CNP-38 eq/kg, 10 mM succinate, 46.0 g/L mannitol, pH 4.00). At least four mice were included at each dose level. Blood pressure (systolic (SAP), diastolic (DAP) and mean (MAP) and heart rate (HR, derived from blood pressure), were recorded using a digital data capture system linked with a DSITM Ponemah data acquisition and analysis system. The capture system allowed recording of the cardiovascular parameters whilst the mice were in individual cages. On the day of each test session the animals were weighed and a predose recording was performed for at least 60 min prior to dosing. Each mouse was returned to the home cage and the cardiovascular parameters were recorded for approximately 48 hours postdose. Blood pressure and HR were reported at the following time points: −30, −20, −10, 5, 15 and 30 min postdose and 1, 2, 6, 12, 18, 24, 30, 36, 42 and 48 hours postdose. Each time point was presented as the average value of five minute's recording prior to the time point. The monitoring period was selected to cover exposure to the test items both prior to and after Tmax.

[3] = Pharmacokinetic profile of CNP-38 after subcutaneous single-dose administration to cynomolgus monkeys; format: in vivo
Protocol: This study was performed in order to test the pharmacokinetics of CNP-38 after subcutaneous (s.c.) administration in cynomolgus monkeys. […] Blood samples were collected at 5, 10, 15, 30, 45 min and 1, 2, 4, 8 hours upon dose.
Method: Plasma levels of CNP were analysed using a commercially available competitive radioimmuno-assay (RK-012-03, Phoenix Pharmaceuticals, CA). The assay was applied essentially as described by the manufacturer. The assay is based on competitive binding between 125I-labelled CNP (supplied in the kit) and unlabeled CNP (from study sample or calibrants) to an anti-CNP antibody. When the concentration of CNP in the sample increases, the amount of 125I-labelled CNP that is able to bind to the antibody decreases. By measuring the amount of 125I-labelled CNP bound as a function of the concentration of peptide, it is possible to construct a calibration curve from which the concentration of peptide in the sample can be determined.
A few changes to the supplied assay protocol were made. These changes included using in-house CNP calibrant and QC samples to secure consistency between assay runs. In order to shorten the duration of the assay, the initial incubation of samples with antibodies was performed at room temperature for 5 hours (instead of 16-24 hours at 4° C.). Due to matrix effects in monkey plasma, the minimal required dilution was set at 1:10, yielding an assay range of 150-1080 pg/mL CNP.

[4] = after iv administration; cited from earlier work
[5] = biological target: T1, NPR-B receptor (Mus musculus, UniProt Q6VVW5); assay: Functional cGMP stimulation in NIH-3T3 cells with CNP variants; format: cell-based, murine; conditions: residual NPR-B activity vs non-PEGylated CNP-38, cGMP
T1 construct: These cells express endogenously the NPR-B receptor on the cell surface; endogenous in cells; host or cells: NIH-3T3 (murine embryo fibroblast)
T1 sequence (Q6VVW5 23-1047 limits assumed): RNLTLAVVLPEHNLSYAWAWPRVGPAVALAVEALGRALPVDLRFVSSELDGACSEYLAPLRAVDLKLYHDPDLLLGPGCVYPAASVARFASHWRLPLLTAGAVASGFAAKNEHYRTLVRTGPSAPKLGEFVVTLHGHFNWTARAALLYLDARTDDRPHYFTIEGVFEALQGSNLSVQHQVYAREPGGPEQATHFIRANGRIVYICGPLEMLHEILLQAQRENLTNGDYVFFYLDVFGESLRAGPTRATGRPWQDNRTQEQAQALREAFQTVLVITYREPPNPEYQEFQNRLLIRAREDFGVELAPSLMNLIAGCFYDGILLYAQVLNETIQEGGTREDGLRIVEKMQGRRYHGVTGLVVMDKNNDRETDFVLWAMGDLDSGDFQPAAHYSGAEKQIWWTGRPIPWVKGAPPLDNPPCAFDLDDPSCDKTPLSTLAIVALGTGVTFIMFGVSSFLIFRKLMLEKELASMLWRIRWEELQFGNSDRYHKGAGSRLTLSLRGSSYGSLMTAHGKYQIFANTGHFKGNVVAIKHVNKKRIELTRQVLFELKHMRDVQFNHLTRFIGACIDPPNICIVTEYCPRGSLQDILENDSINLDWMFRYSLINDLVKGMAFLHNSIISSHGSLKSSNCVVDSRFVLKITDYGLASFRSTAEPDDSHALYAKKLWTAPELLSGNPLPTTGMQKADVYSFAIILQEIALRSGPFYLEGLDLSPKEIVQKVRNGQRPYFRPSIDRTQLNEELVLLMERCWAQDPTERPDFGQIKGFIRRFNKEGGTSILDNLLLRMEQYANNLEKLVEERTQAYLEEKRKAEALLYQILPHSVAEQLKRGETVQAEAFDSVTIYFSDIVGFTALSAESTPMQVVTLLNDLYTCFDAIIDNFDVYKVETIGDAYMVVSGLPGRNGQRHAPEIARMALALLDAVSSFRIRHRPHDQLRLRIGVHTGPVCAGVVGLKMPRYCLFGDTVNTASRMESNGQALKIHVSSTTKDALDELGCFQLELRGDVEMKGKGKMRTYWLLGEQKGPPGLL
Protocol: As used herein “EC50” with regard to controlled-release CNP agonist and CNP agonist refers to the concentration of controlled-release CNP agonist and CNP agonist with which a half-maximum cGMP production of NPR-B is elicited. NPR-B activity in the form of its EC50 of the controlled-release CNP agonist, of the released CNP agonist and of CNP-22 is measured by cultivating NIH-3T3 (Murine Embryo Fibroblast cell line) cells which express NPR-B on their cell surface, incubating the cells with the controlled-release CNP agonist, the corresponding released CNP agonist or CNP-22, respectively, and determining the intracellular production of the second messenger cGMP with a standard cGMP assay. In particular the assay is performed as follows: • (1) murine NIH-3T3 cells expressing endogenous NPR-B are cultivated in DMEM F-12 medium with 5% FBS and 5 mM glutamine at 37° C. and 5% CO2; • (2) for each assay 50,000 cells are resuspended in Dulbecco's PBS with IBMX and incubated with either the controlled-release CNP agonist, the corresponding released CNP agonist or CNP-22; each in different concentrations; • (3) after incubating for 30 min at 37° C. and 5% CO2, the cells are lysed and cGMP levels are determined; and • (4) generating an EC50 value from the determined cGMP levels.
Functional activity of CNP variants were determined in a cell-based assay with NIH-3T3 cells (Murine Embryo Fibroblast cell line). These cells express endogenously the NPR-B receptor on the cell surface. Stimulation of the NPR-B receptor with CNP leads to intracellular production of the second messenger cGMP which is detected with a commercially available cGMP assay. NIH-3T3 cells were routinely cultured in DMEM F-12 medium with 5% FBS and 5 mM glutamine at 37° C. and 5% CO2. For each assay, 50,000 cells were resuspended in stimulation buffer (Dulbecco's PBS with IBMX) and incubated with the CNP variants in different concentrations. CNP (dilutions were made in PBS with 0.2% BSA). After incubation of 30 min at 37° C. and 5% CO2, the cells were lyzed and cGMP levels were determined with a commercially available cGMP TR-FRET assay (Cisbio, cGMP kit, Cat. No. 62GM2PEB). PEGylated CNP variants were always characterized in comparison with the non-PEGylated version in the same experiment batch. If possible, evaluation of the residual activity was done via the relative EC50-parameter of the resulting dose-response curve (restricted model with common slope).
11i was incubated under physiological conditions (1 mg CNP-38 eq/mL), as described in Example 20. After 7 d, released CNP-38 was isolated by RP-HPLC and analyzed for bioactivity as described in Example 21.

[6] = biological target: T2, NPR-C (Homo sapiens, UniProt P17342); assay: NPR-C affinity assay; format: binding; conditions: residual NPR-C affinity, NPR-C expressing Hek293 cells, competition with fluorescein-labelled CNP 27d
T2 construct: expressed in transfected cells; host or cells: Hek293, lentiviral transduction, CMV promoter, puromycin selection
T2 sequence (P17342 27-541): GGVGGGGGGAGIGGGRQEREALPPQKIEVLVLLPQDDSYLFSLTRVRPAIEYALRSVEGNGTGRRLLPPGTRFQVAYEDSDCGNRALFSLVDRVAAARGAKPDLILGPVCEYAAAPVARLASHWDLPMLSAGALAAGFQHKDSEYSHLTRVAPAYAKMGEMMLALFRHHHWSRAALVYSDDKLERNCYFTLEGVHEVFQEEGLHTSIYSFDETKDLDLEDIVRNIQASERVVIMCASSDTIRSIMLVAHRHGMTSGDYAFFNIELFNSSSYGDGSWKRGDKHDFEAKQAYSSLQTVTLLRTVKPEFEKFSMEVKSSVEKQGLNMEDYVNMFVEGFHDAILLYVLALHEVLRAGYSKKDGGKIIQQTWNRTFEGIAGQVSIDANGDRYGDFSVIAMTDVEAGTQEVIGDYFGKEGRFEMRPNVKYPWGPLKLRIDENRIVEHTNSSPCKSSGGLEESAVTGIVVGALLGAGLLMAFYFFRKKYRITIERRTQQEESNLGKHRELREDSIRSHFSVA

[7] = CNP injection, healthy volunteers; cited from earlier work

recombinant human NEP, sequence (P08473 whole entry): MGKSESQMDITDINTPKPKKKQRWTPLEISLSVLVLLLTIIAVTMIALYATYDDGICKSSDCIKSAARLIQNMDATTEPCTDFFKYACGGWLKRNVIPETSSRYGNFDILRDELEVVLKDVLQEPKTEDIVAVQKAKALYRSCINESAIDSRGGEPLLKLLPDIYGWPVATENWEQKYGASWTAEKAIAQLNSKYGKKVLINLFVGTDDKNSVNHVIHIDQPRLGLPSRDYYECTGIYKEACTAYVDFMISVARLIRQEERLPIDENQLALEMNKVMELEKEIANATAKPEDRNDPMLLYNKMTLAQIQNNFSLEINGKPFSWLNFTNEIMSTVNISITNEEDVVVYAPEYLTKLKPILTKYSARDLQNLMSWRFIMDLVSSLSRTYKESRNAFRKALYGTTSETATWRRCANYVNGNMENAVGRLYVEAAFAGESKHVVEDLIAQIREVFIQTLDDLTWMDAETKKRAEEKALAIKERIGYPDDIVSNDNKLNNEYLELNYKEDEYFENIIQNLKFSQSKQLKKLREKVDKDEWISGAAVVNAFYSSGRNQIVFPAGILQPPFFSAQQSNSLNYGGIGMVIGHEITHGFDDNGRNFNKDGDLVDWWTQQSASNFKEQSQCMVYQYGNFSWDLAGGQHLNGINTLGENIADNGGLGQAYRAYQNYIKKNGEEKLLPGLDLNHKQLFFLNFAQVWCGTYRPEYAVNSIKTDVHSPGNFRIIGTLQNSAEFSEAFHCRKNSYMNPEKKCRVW

For “Permanent Lys16 CNP-34 PEG 5 kDa Conjugate [Compound 17e]”, the half-life [1] was 2.26 days.

For `CC[C@H](C)[C@@H]1NC(=O)[C@H](CCCNC(=N)N)NC(=O)[C@H](CC(=O)O)NC(=O)[C@H](CC(C)C)NC(=O)[C@H](CCCCN)NC(=O)[C@H](CC(C)C)NC(=O)CNC(=O)[C@H](Cc2ccccc2)NC(=O)[C@@H](NC(=O)CNC(=O)[C@H](CCCCN)NC(=O)[C@H](CO)NC(=O)[C@H](CC(C)C)NC(=O)CNC(=O)[C@H](CCCCN)NC(=O)[C@H](CCCCN)NC(=O)[C@H](CC(N)=O)NC(=O)[C@H](C)NC(=O)CNC(=O)[C@H](CCCCN)NC(=O)[C@H](Cc2ccc(O)cc2)NC(=O)[C@H](CCCCN)NC(=O)[C@H](CCCNC(=N)N)NC(=O)[C@H](C)NC(=O)[C@H](CC(N)=O)NC(=O)[C@@H]2CCCN2C(=O)[C@H](Cc2c[nH]cn2)NC(=O)[C@H](CCC(=O)O)NC(=O)[C@H](CCC(N)=O)NC(=O)[C@@H](N)CC(C)C)CSSC[C@@H](C(=O)O)NC(=O)CNC(=O)[C@H](CC(C)C)NC(=O)CNC(=O)[C@H](CO)NC(=O)[C@H](CCSC)NC(=O)[C@H](CO)NC(=O)CNC1=O` [CNP-38, reference compound], the HR [2] was “not impacted”, the “MAP versus vehicle at the remaining ten time points” value ([2]; 1 to 48 hours postdose) was “no difference in MAP” and the “change in MAP compared to predose” value ([2]; 5, 15 and 30 min post dose, CNP-38: 3 of 4 animals) was “significant decrease in MAP”. It also gave an MAP ([2]; 5 min post dose) of 102.0 ± 7.5 mmHg, an MAP ([2]; 15 min post dose) of 89.5 ± 29.4 mmHg and an MAP ([2]; 30 min post dose) of 99.5 ± 25.2 mmHg. For the same compound, the MAP ([2]; predose) was 106.8 ± 13.4 mmHg, the “Half-life (mean)” value ([3]; cynomolgus monkey, in vivo, sc, 40 ug/kg) was 6.6 min and the half-life ([3]; male, cynomolgus monkey, in vivo, sc, 40 ug/kg) was about 7 min. The tolerability ([3]; single s.c. 40 μg/kg) was “well tolerated”.

In the case of `CC[C@H](C)[C@@H]1NC(=O)[C@H](CCCNC(=N)N)NC(=O)[C@H](CC(=O)O)NC(=O)[C@H](CC(C)C)NC(=O)[C@H](CCCCN)NC(=O)[C@H](CC(C)C)NC(=O)CNC(=O)[C@H](Cc2ccccc2)NC(=O)[C@@H](NC(=O)CNC(=O)[C@H](CCCCN)NC(=O)[C@H](CO)NC(=O)[C@H](CC(C)C)NC(=O)CN)CSSC[C@@H](C(=O)O)NC(=O)CNC(=O)[C@H](CC(C)C)NC(=O)CNC(=O)[C@H](CO)NC(=O)[C@H](CCSC)NC(=O)[C@H](CO)NC(=O)CNC1=O` [CNP-22], the half-life [4] is listed as 2 min.

For “Permanent Lys26 CNP-38 PEG 5 kDa Conjugate [Compound 19e]”, the “EC50 compound/EC50 CNP-38” value [5] was over 100, the half-life [1] was 2.62 days and the “IC50 of PEGylated CNP-38/IC50 CNP-38” value [6] was 1.1.

Work on “Permanent Lys22 CNP-34 PEG 5 kDa Conjugate [Compound 18e]” yielded a half-life [1] of 1.62 days.

For “CNP: natriuretic peptide CNP injected in healthy volunteers (Igaki et al.)”, the heart rate [7] is given as “significant increase in heart rate” and the “systolic and diastolic blood pressure” value [7] is given as “transient but significant decrease in both systolic and diastolic blood pressure”.
